Assay results: patent US4762839A, “Quinazolinone copmpounds useful for the prophyloxis and treatment of diabetic complications” (priority 1985, dated 1988)
Structures can show the parent of a compound that is named as a salt.

Key:
[1] = target: T1, aldose reductase (Oryctolagus cuniculus, UniProt P15122); experiment: Aldose reductase inhibitory activity; format: biochemical; details: aldose reductase from lens of male rabbit
T1 construct: Aldose reductase was obtained from lens of male rabbit; from tissue; host or cells: lens of male rabbit (weighing 2.5-3.5 kg)
Method: Aldose reductase was obtained from lens of male rabbit (weighing 2.5-3.5 kg) in the same manner as described in J. Biol. Chem., Vol. 240, 877-882 (1965). The inhibitory activity of the test compounds against the aldose reductase was measured in the same manner as described in Biochim. Biophys. Acta., Vol. 128, 474-482 (1966).

[2] = test system: ddY male mice; experiment: Acute toxicity and observation of symptoms; format: in vivo; details: for abnormal symptoms (dysbasia, areflexia, astasia, blepharoptosis, dyspnea, skin flush, lacrimation, etc.): mouse, in vivo, po; for mortality (acute toxicity): oral, suspension in 0.5% carboxymethyl cellulose, observed for 14 days, dose not given

| Compound | IC50 [1] | abnormal symptoms (dysbasia, areflexia, astasia, blepharoptosis, dyspnea, skin flush, lacrimation, etc.) [2] | mortality (acute toxicity) [2] |
| --- | --- | --- | --- |
| CN1C(=O)N(C)C2(C1=O)c1ccccc1NC(=O)N2C (stereo not shown) [Test Compound 12, 3,1',3'-Trimethyl-spiro[1,2,3,4-tetrahydroquinazoline-4,4'-imidazolidine]-2,2',5'-trione, reference compound] | > 50000 nM | – | – |
| CN1C(=O)Nc2cc(Cl)c(Cl)cc2C12NC(=O)NC2=O (stereo not shown) [Test Compound 7, 6,7-Dichloro-3-methyl-spiro[1,2,3,4-tetrahydroquinazoline-4,4'-imidazolidine]-2,2',5'-trione] | 74 nM | – | – |
| CN1C(=O)Nc2ccc(Cl)cc2C12NC(=O)NC2=O (stereo not shown) [Test Compound 1, 6-Chloro-3-methyl-spiro[1,2,3,4-tetrahydroquinazoline-4,4'-imidazolidine]-2,2',5'-trione] | 56 nM | there was not observed any abnormal symptom | no mouse died |
| CC(C)CN1C(=O)N(C)C2(NC(=O)NC2=O)c2cc(Cl)ccc21 (stereo not shown) [Test Compound 10, 1-Isobutyl-6-chloro-3-methyl-spiro[1,2,3,4-tetrahydroquinazoline-4,4'-imidazolidine]-2,2',5'-trione] | 270 nM | – | – |
| CN1C(=O)NC2(C1=O)c1ccccc1NC(=O)N2C (stereo not shown) [Test Compound 11, 3,1'-Dimethyl-spiro[1,2,3,4-tetrahydroquinazoline-4,4'-imidazolidine]-2,2',5'-trione, reference compound] | 10000 nM | – | – |
| CN1C(=O)Nc2ccc(Br)cc2C12NC(=O)NC2=O (stereo not shown) [Test Compound 6, 6-Bromo-3-methyl-spiro[1,2,3,4-tetrahydroquinazoline-4,4'-imidazolidine]-2,2',5'-trione] | 52 nM | – | – |
| CN1C(=O)Nc2ccc(Cl)cc2C12NC(=O)NC2=O (stereo not shown) [Test Compound 3, 6-Chloro-3-methyl-spiro[1,2,3,4-tetrahydroquinazoline-4,4'-imidazolidine]-2,2',5'-trione-1'-sodium salt] | 29 nM | – | – |
| Cc1cc2c(cc1Cl)C1(NC(=O)NC1=O)N(C)C(=O)N2 (stereo not shown) [Test Compound 5, 6-Chloro-3,7-dimethyl-spiro[1,2,3,4-tetrahydroquinazoline-4,4'-imidazolidine]-2,2',5'-trione] | 30 nM | – | – |
| CN1C(=O)Nc2ccc(Cl)cc2C12NC(=O)NC2=O (stereo not drawn) [Test Compound 2, d-6-Chloro-3-methyl-spiro[1,2,3,4-tetrahydroquinazoline-4,4'-imidazolidine]-2,2',5'-trione] | 22 nM | there was not observed any abnormal symptom | no mouse died |
